# Measured values published in PubChem BioAssay AID328 (DTP/NCI, 2004).
# “And” between values parts separate entries of the source, which are not always exact repeats. Equal entries are not always repeated. Toxic doses and inconclusive results are not listed.
# Tested on: BDF1 mice, P388 leukemia ip, median survival T/C
# Assay: NCI In Vivo Anticancer Drug Screen. Data for tumor model P388 Leukemia (intraperitoneal) in B6D2F1 (BDF1) mice
# Details: endpoint: median survival time, higher = longer survival
# In short: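 T/C = treated-group survival ÷ vehicle-control survival; tumour transplanted into mice before dosing.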
# [1] = dose: 10.0 mg/kg/injection, schedule: Q01DX009 (ip), vehicle: saline with Tween-80
# [2] = dose: 100.0 mg/kg/injection, schedule: Q04DX003 (ip), vehicle: saline
# [3] = dose: 200.0 mg/kg/injection, schedule: Q04DX003 (ip), vehicle: saline
# [4] = dose: 400.0 mg/kg/injection, schedule: Q04DX003 (ip), vehicle: saline
# [5] = dose: 25.0 mg/kg/injection, schedule: Q01DX009 (ip), vehicle: saline + alcohol
# [6] = dose: 50.0 mg/kg/injection, schedule: Q01DX009 (ip), vehicle: saline + alcohol
# [7] = dose: 50.0 mg/kg/injection, schedule: Q04DX003 (ip), vehicle: saline
# [8] = dose: 50.0 mg/kg/injection, schedule: Q01DX009 (ip), vehicle: saline with Tween-80
# [9] = dose: 100.0 mg/kg/injection, schedule: Q01DX009 (ip), vehicle: saline with Tween-80
# [10] = dose: 200.0 mg/kg/injection, schedule: Q01DX009 (ip), vehicle: saline with Tween-80
# [11] = dose: 50.0 mg/kg/injection, schedule: Q01DX009 (ip), vehicle: saline
# [12] = dose: 100.0 mg/kg/injection, schedule: Q01DX009 (ip), vehicle: saline
# [13] = dose: 200.0 mg/kg/injection, schedule: Q01DX009 (ip), vehicle: saline
# [14] = dose: 100.0 mg/kg/injection, schedule: Q01DX009 (ip), vehicle: Klucel (hydroxypropylcellulose) (HPC)
# [15] = dose: 20.0 mg/kg/injection, schedule: Q01DX009 (ip), vehicle: saline
# [16] = dose: 40.0 mg/kg/injection, schedule: Q01DX009 (ip), vehicle: saline
# [17] = dose: 400.0 mg/kg/injection, schedule: Q01DX009 (ip), vehicle: saline
# [18] = dose: 25.0 mg/kg/injection, schedule: Q01DX001 (ip), vehicle: Klucel (hydroxypropylcellulose) (HPC)
# [19] = dose: 50.0 mg/kg/injection, schedule: Q01DX001 (ip), vehicle: Klucel (hydroxypropylcellulose) (HPC)
# [20] = dose: 25.0 mg/kg/injection, schedule: Q01DX009 (ip), vehicle: saline with Tween-80
# [21] = dose: 100.0 mg/kg/injection, schedule: Q04DX003 (ip), vehicle: Klucel (hydroxypropylcellulose) (HPC)
smiles,measurement,setting,value
CC1CN1c1cc(O)c(N2CC2C)cc1O (centres undefined),T/C,"dose: 1.32 mg/kg/injection, schedule: Q01DX009 (ip), vehicle: saline with Tween-80",154 % of control
same,T/C,"dose: 2.0 mg/kg/injection, schedule: Q01DX009 (ip), vehicle: saline with Tween-80",208 % of control
same,T/C,"dose: 2.2 mg/kg/injection, schedule: Q01DX009 (ip), vehicle: saline with Tween-80",200 % of control
same,T/C,"dose: 3.0 mg/kg/injection, schedule: Q01DX009 (ip), vehicle: saline with Tween-80",187 % of control
same,T/C,"dose: 3.3 mg/kg/injection, schedule: Q01DX009 (ip), vehicle: saline with Tween-80",265 % of control
same,T/C,"dose: 5.0 mg/kg/injection, schedule: Q01DX009 (ip), vehicle: saline with Tween-80",310 % of control and 204 % of control
same,T/C,"dose: 5.0 mg/kg/injection, schedule: Q04DX003 (ip), vehicle: saline with Tween-80",154 % of control
same,T/C,"dose: 7.5 mg/kg/injection, schedule: Q04DX003 (ip), vehicle: saline with Tween-80",231 % of control
same,T/C,[1],90 % of control
CC1(C)OC(COCCOCCO)C(COCCOCCO)O1 (centres undefined),T/C,[2],96 % of control
same,T/C,[3],103 % of control
same,T/C,[4],96 % of control
C[N+](C)=C1C=CC(=C2C=CSC=C2)C=C1,T/C,"dose: 1.56 mg/kg/injection, schedule: Q01DX009 (ip), vehicle: saline",117 % of control
same,T/C,"dose: 3.12 mg/kg/injection, schedule: Q01DX009 (ip), vehicle: saline",124 % of control
same,T/C,"dose: 6.25 mg/kg/injection, schedule: Q01DX009 (ip), vehicle: saline",123 % of control
same,T/C,"dose: 12.5 mg/kg/injection, schedule: Q01DX009 (ip), vehicle: saline",100 % of control
CC(=O)c1ccccc1-n1c(C)ccc1C,T/C,[5],114 % of control
same,T/C,[6],122 % of control
same,T/C,[7],96 % of control
same,T/C,"dose: 100.0 mg/kg/injection, schedule: Q01DX009 (ip), vehicle: saline + alcohol",116 % of control
same,T/C,[2],119 % of control
same,T/C,"dose: 200.0 mg/kg/injection, schedule: Q01DX009 (ip), vehicle: saline + alcohol",99 % of control
same,T/C,[3],92 % of control
same,T/C,[4],97 % of control
O=c1[nH]c(=O)n(C2CC(O)C(CO)O2)cc1I (centres undefined),T/C,[1],109 % of control
same,T/C,"dose: 20.0 mg/kg/injection, schedule: Q01DX009 (ip), vehicle: saline with Tween-80",107 % of control
same,T/C,"dose: 40.0 mg/kg/injection, schedule: Q01DX009 (ip), vehicle: saline with Tween-80",92 % of control and 109 % of control
same,T/C,"dose: 80.0 mg/kg/injection, schedule: Q01DX009 (ip), vehicle: saline with Tween-80",106 % of control and 118 % of control
same,T/C,"dose: 320.0 mg/kg/injection, schedule: Q01DX009 (ip), vehicle: saline with Tween-80",90 % of control
O=C1SC(c2ccccc2)=S=C1c1ccccc1,T/C,[8],108 % of control
same,T/C,[9],123 % of control
same,T/C,[10],123 % of control
same,T/C,"dose: 400.0 mg/kg/injection, schedule: Q01DX009 (ip), vehicle: saline with Tween-80",117 % of control
CNCCN(C)CCN(C)Cc1ccc(OC)cc1,T/C,"dose: 25.0 mg/kg/injection, schedule: Q01DX009 (ip), vehicle: water",101 % of control
same,T/C,[11],111 % of control
same,T/C,"dose: 50.0 mg/kg/injection, schedule: Q01DX009 (ip), vehicle: water",110 % of control
same,T/C,[12],101 % of control
same,T/C,"dose: 100.0 mg/kg/injection, schedule: Q01DX009 (ip), vehicle: water",93 % of control
same,T/C,[13],104 % of control
COc1c(C)cc(Br)c2c1C(CCN(C)S(=O)(=O)Cc1ccccc1)CCC2 (centres undefined),T/C,[14],100 % of control
same,T/C,"dose: 200.0 mg/kg/injection, schedule: Q01DX009 (ip), vehicle: Klucel (hydroxypropylcellulose) (HPC)",110 % of control
same,T/C,"dose: 400.0 mg/kg/injection, schedule: Q01DX009 (ip), vehicle: Klucel (hydroxypropylcellulose) (HPC)",110 % of control
CCC1CCCC1O (centres undefined),T/C,[8],101 % of control
same,T/C,[9],102 % of control
same,T/C,[10],100 % of control
COC1N(C2CC(O)C(CO)O2)C(=O)NC(=O)C1(F)Br (centres undefined),T/C,"dose: 5.0 mg/kg/injection, schedule: Q01DX009 (ip), vehicle: saline",90 % of control
same,T/C,"dose: 10.0 mg/kg/injection, schedule: Q01DX009 (ip), vehicle: saline",109 % of control
same,T/C,[15],109 % of control
same,T/C,[16],122 % of control
same,T/C,[11],111 % of control
same,T/C,[12],113 % of control
same,T/C,[2],104 % of control
same,T/C,[13],106 % of control
same,T/C,[3],122 % of control
same,T/C,[17],94 % of control
same,T/C,[4],150 % of control
COc1cc2c(cc1OC)C1CCc3cc4c(cc3C1N=C2)OCO4 (centres undefined),T/C,[15],100 % of control
same,T/C,[16],105 % of control
same,T/C,"dose: 80.0 mg/kg/injection, schedule: Q01DX009 (ip), vehicle: saline",105 % of control
same,T/C,"dose: 120.0 mg/kg/injection, schedule: Q01DX009 (ip), vehicle: saline",105 % of control
same,T/C,"dose: 240.0 mg/kg/injection, schedule: Q01DX009 (ip), vehicle: saline",100 % of control
c1ccc(C2C(c3ccnc4c3ccc3ccccc34)C(c3ccccc3)C2c2ccnc3c2ccc2ccccc23)cc1 (centres undefined),T/C,[18],93 % of control and 91 % of control
same,T/C,[19],97 % of control and 100 % of control
same,T/C,"dose: 100.0 mg/kg/injection, schedule: Q01DX001 (ip), vehicle: Klucel (hydroxypropylcellulose) (HPC)",100 % of control and 106 % of control
C[As](C)SC(CO)C1OC2OC(C)(C)OC2C1O (centres undefined),T/C,"dose: 12.5 mg/kg/injection, schedule: Q01DX009 (ip), vehicle: saline + alcohol",97 % of control
same,T/C,[5],100 % of control
same,T/C,[6],106 % of control
O=C(O)c1cc(C(=O)O)cc([N+](=O)[O-])c1,T/C,[20],100 % of control
same,T/C,[8],100 % of control
same,T/C,[9],90 % of control
O=c1[nH]cnc2sc3c(c12)CCCC3,T/C,"dose: 100.0 mg/kg/injection, schedule: Q04DX003 (ip), vehicle: saline sonified",95 % of control
same,T/C,"dose: 200.0 mg/kg/injection, schedule: Q04DX003 (ip), vehicle: saline sonified",100 % of control
same,T/C,"dose: 400.0 mg/kg/injection, schedule: Q04DX003 (ip), vehicle: saline sonified",100 % of control
O=C(CC(=O)C(F)(F)C(F)(F)C(F)(F)F)c1csc2ccccc12,T/C,"dose: 6.25 mg/kg/injection, schedule: Q01DX009 (ip), vehicle: Klucel (hydroxypropylcellulose) (HPC)",91 % of control
same,T/C,"dose: 12.5 mg/kg/injection, schedule: Q01DX009 (ip), vehicle: Klucel (hydroxypropylcellulose) (HPC)",95 % of control
same,T/C,"dose: 25.0 mg/kg/injection, schedule: Q01DX009 (ip), vehicle: Klucel (hydroxypropylcellulose) (HPC)",95 % of control
same,T/C,[20],95 % of control
same,T/C,"dose: 50.0 mg/kg/injection, schedule: Q01DX009 (ip), vehicle: Klucel (hydroxypropylcellulose) (HPC)",100 % of control
same,T/C,[8],100 % of control
same,T/C,[14],115 % of control
same,T/C,[9],91 % of control
same,T/C,[12],115 % of control
same,T/C,[21],104 % of control
same,T/C,"dose: 200.0 mg/kg/injection, schedule: Q04DX003 (ip), vehicle: Klucel (hydroxypropylcellulose) (HPC)",104 % of control
same,T/C,"dose: 400.0 mg/kg/injection, schedule: Q04DX003 (ip), vehicle: Klucel (hydroxypropylcellulose) (HPC)",109 % of control
O=C1CCCN1,T/C,"dose: 50.0 mg/kg/injection, schedule: Q01DX001 (ip), vehicle: saline",100 % of control
same,T/C,[7],95 % of control
same,T/C,"dose: 100.0 mg/kg/injection, schedule: Q01DX001 (ip), vehicle: saline",118 % of control
same,T/C,[12],105 % of control
same,T/C,[2],87 % of control
same,T/C,"dose: 200.0 mg/kg/injection, schedule: Q01DX001 (ip), vehicle: saline",100 % of control
same,T/C,[13],110 % of control
same,T/C,[17],110 % of control
C=CCOCCC(=O)OCC=C,T/C,"dose: 12.0 mg/kg/injection, schedule: Q01DX001 (ip), vehicle: Klucel (hydroxypropylcellulose) (HPC)",104 % of control
same,T/C,[18],100 % of control
same,T/C,"dose: 25.0 mg/kg/injection, schedule: Q04DX003 (ip), vehicle: Klucel (hydroxypropylcellulose) (HPC)",100 % of control
same,T/C,[19],86 % of control
same,T/C,"dose: 50.0 mg/kg/injection, schedule: Q04DX003 (ip), vehicle: Klucel (hydroxypropylcellulose) (HPC)",104 % of control
same,T/C,[21],86 % of control and 100 % of control
